Experimental data taken from the NIST ThermoML archive (doi:10.1016/j.jct.2016.05.001).

Test: molar heat capacity at constant pressure
Settings: 101.33 kPa, Crystal, Small (less than 1 g) adiabatic calorimetry

Nc1nc2ncc(CNc3ccc(C(=O)N[C@@H](CCC(=O)O)C(=O)O)cc3)nc2c(=O)[nH]1.O.O [folic acid dihydrate]
Settings | molar heat capacity at constant pressure [J/K/mol]
4 K | 0.102
5 K | 0.2491
6 K | 0.5453
6.19 K | 0.593
6.38 K | 0.655
6.61 K | 0.721
6.75 K | 0.802
6.92 K | 0.887
7 K | 0.912
7.08 K | 0.945
7.25 K | 1.04
7.41 K | 1.13
7.57 K | 1.252
7.74 K | 1.385
7.91 K | 1.525
8 K | 1.566
8.09 K | 1.638
8.26 K | 1.768
8.44 K | 1.945
8.62 K | 2.088
8.81 K | 2.306
8.99 K | 2.516
9 K | 2.515
9.18 K | 2.748
9.37 K | 2.964
9.57 K | 3.161
9.76 K | 3.423
9.96 K | 3.738
10 K | 3.778
10.25 K | 4.166
10.62 K | 4.708
10.99 K | 5.254
11.38 K | 5.862
11.76 K | 6.483
12.15 K | 7.179
12.54 K | 7.815
12.94 K | 8.333
13.34 K | 8.928
13.74 K | 9.587
14.14 K | 10.14
14.55 K | 10.74
14.95 K | 11.46
15 K | 11.59
15.36 K | 12.2
15.77 K | 12.88
16.17 K | 13.8
16.58 K | 14.68
16.99 K | 15.55
17.41 K | 16.41
17.82 K | 17.5
18.23 K | 18.49
18.65 K | 19.48
19.07 K | 20.54
19.48 K | 21.69
19.9 K | 23.01
20 K | 23.04
20.65 K | 24.46
21.68 K | 27.43
22.72 K | 30.51
23.77 K | 33.53
24.84 K | 36.78
25 K | 37.08
25.91 K | 40.14
26.99 K | 43.46
28.09 K | 47.02
29.19 K | 50.59
30 K | 53.06
30.31 K | 54.03
31.67 K | 58.43
32.99 K | 62.72
34.13 K | 66.37
35 K | 68.97
35.27 K | 70.06
36.42 K | 73.12
37.58 K | 77.03
38.73 K | 80.18
39.9 K | 83.86
40 K | 84.24
41.07 K | 87.28
42.25 K | 90.77
43.42 K | 94.06
44.6 K | 97.24
45 K | 98.58
45.79 K | 100.6
46.98 K | 104.2
48.17 K | 107.5
49.36 K | 110.7
50 K | 112.2
50.59 K | 113.9
51.85 K | 117.3
53.22 K | 120.9
54.67 K | 124.8
55.88 K | 127.9
57.09 K | 131
58.3 K | 134.2
59.51 K | 137.3
60 K | 138.8
60.73 K | 140.4
61.94 K | 143.5
63.16 K | 146.9
64.38 K | 150.7
65.6 K | 153.5
66.82 K | 156.6
68.05 K | 160.1
69.27 K | 162.8
70 K | 164.4
70.5 K | 165.1
71.99 K | 169.2
74 K | 173.6
76.06 K | 178.7
78.43 K | 183
80 K | 186.3
80.89 K | 187.7
82.9 K | 192.1
84.91 K | 195.6
86.92 K | 199
88.92 K | 202.8
90 K | 204.7
90.93 K | 206.4
92.93 K | 210.3
94.93 K | 214
96.93 K | 217.8
98.92 K | 222.6
100 K | 224.7
100.92 K | 227
103.4 K | 232.2
106.39 K | 237.8
109.39 K | 242.7
110 K | 244.1
112.4 K | 248.4
115.42 K | 253.8
118.43 K | 259.3
120 K | 262
121.45 K | 264.5
124.48 K | 269.8
127.5 K | 275.4
130 K | 280.1
130.53 K | 281.3
133.57 K | 286.9
136.6 K | 292.2
139.64 K | 297.9
140 K | 298.3
142.68 K | 303.3
145.73 K | 308.5
148.77 K | 314.4
150 K | 316.4
151.82 K | 319.5
154.87 K | 325
157.92 K | 330.4
160 K | 334.1
160.98 K | 335.8
164.06 K | 341.4
167.12 K | 346.3
170 K | 351.6
170.18 K | 351.6
173.24 K | 357.2
176.3 K | 362.7
179.37 K | 368.2
180 K | 369
182.43 K | 373.5
185.5 K | 378.4
188.56 K | 383.4
190 K | 386.3
191.63 K | 389.3
194.69 K | 394.9
197.76 K | 400.1
200 K | 403.7
200.82 K | 404.6
203.89 K | 410.4
207.45 K | 417
210 K | 421.1
211.53 K | 423.5
215.66 K | 431.6
219.74 K | 437.6
220 K | 438.6
223.82 K | 445.1
227.89 K | 452.3
230 K | 456.1
231.96 K | 459.5
236.04 K | 466.9
240 K | 473.7
240.12 K | 474.5
244.2 K | 481.2
248.27 K | 487.4
250 K | 491.2
252.34 K | 495.1
256.41 K | 502.6
260 K | 508.6
260.47 K | 509.7
264.53 K | 516.2
268.59 K | 523.3
270 K | 525.9
272.64 K | 530.3
273.15 K | 531.3
276.68 K | 537.3
280 K | 543.1
280.75 K | 545.1
284.78 K | 550.6
288.79 K | 558.6
290 K | 560.3
292.8 K | 565.2
296.8 K | 571.5
298.15 K | 574.4
300 K | 577.6
300.78 K | 578.9
306.79 K | 590
310 K | 595.2
312.24 K | 599.4
320 K | 613.1
320.03 K | 612.7
326.53 K | 625.5
330 K | 631.7
332.98 K | 637.3
333 K | 637.5
